Several values for one entry are separate records, joined by “and”; a condition that tells them apart may be missing. Equal values may be shown once. Toxic doses and inconclusive results are not listed. Cut-off read from the data, not from the text of the source: active = T/C of 150% or more; inactive = T/C below 125%.
System: L1210 leukemia ip in BDF1 mice, survival T/C
Experiment: NCI In Vivo Anticancer Drug Screen. Data for tumor model L1210 Leukemia (intraperitoneal) in B6D2F1 (BDF1) mice
Conditions: endpoint: mean survival time, higher = longer survival
Method in brief: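 Transplanted-tumor mice were given test agent; controls received vehicle only. Survival readings from the two groups were divided (treated over control).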

[1] = dose: 100.0 mg/kg/injection, schedule: Q01DX001 (ip), vehicle: saline
[2] = dose: 400.0 mg/kg/injection, schedule: Q01DX001 (ip), vehicle: saline
[3] = dose: 100.0 mg/kg/injection, schedule: Q04DX003 (ip), vehicle: saline
[4] = dose: 200.0 mg/kg/injection, schedule: Q04DX003 (ip), vehicle: saline
[5] = dose: 400.0 mg/kg/injection, schedule: Q04DX003 (ip), vehicle: saline
[6] = dose: 100.0 mg/kg/injection, schedule: Q01DX009 (ip), vehicle: saline with Tween-80
[7] = dose: 200.0 mg/kg/injection, schedule: Q01DX009 (ip), vehicle: saline with Tween-80
[8] = dose: 400.0 mg/kg/injection, schedule: Q01DX009 (ip), vehicle: saline with Tween-80
[9] = dose: 100.0 mg/kg/injection, schedule: Q04DX003 (ip), vehicle: Klucel (hydroxypropylcellulose) (HPC)
[10] = dose: 200.0 mg/kg/injection, schedule: Q04DX003 (ip), vehicle: Klucel (hydroxypropylcellulose) (HPC)
[11] = dose: 100.0 mg/kg/injection, schedule: Q04DX002 (ip), vehicle: Klucel (hydroxypropylcellulose) (HPC)
[12] = dose: 200.0 mg/kg/injection, schedule: Q04DX002 (ip), vehicle: Klucel (hydroxypropylcellulose) (HPC)
[13] = dose: 400.0 mg/kg/injection, schedule: Q04DX002 (ip), vehicle: Klucel (hydroxypropylcellulose) (HPC)
[14] = dose: 100.0 mg/kg/injection, schedule: Q01DX009 (ip), vehicle: Klucel (hydroxypropylcellulose) (HPC)
[15] = dose: 200.0 mg/kg/injection, schedule: Q01DX009 (ip), vehicle: Klucel (hydroxypropylcellulose) (HPC)
[16] = dose: 400.0 mg/kg/injection, schedule: Q01DX009 (ip), vehicle: Klucel (hydroxypropylcellulose) (HPC)
[17] = dose: 100.0 mg/kg/injection, schedule: Q01DX001 (ip), vehicle: carboxymethylcellulose (CMC)
[18] = dose: 200.0 mg/kg/injection, schedule: Q01DX001 (ip), vehicle: carboxymethylcellulose (CMC)
[19] = dose: 400.0 mg/kg/injection, schedule: Q01DX001 (ip), vehicle: carboxymethylcellulose (CMC)
[20] = dose: 400.0 mg/kg/injection, schedule: Q04DX003 (ip), vehicle: Klucel (hydroxypropylcellulose) (HPC)

Measured: T/C

CC1CC=C(C2CC(C)CC(N(C)C)C2=N)CC1 (centres undefined)
inactive: dose: 100.0 mg/kg/injection, schedule: Q01DX009 (sc), vehicle: olive oil, sesame oil, peanut oil 101 % of control | dose: 100.0 mg/kg/injection, schedule: Q04DX003 (sc), vehicle: olive oil, sesame oil, peanut oil 108 % of control | dose: 200.0 mg/kg/injection, schedule: Q01DX009 (sc), vehicle: olive oil, sesame oil, peanut oil 92 % of control | dose: 200.0 mg/kg/injection, schedule: Q04DX003 (sc), vehicle: olive oil, sesame oil, peanut oil 103 % of control | dose: 400.0 mg/kg/injection, schedule: Q04DX003 (sc), vehicle: olive oil, sesame oil, peanut oil 106 % of control

CC(=O)Nc1ccc(S(=O)(=O)NC(=O)NCCC(C)C)cc1
inactive: dose: 100.0 mg/kg/injection, schedule: Q04DX003 (ip), vehicle: saline with Tween-80 94 % of control | dose: 200.0 mg/kg/injection, schedule: Q04DX003 (ip), vehicle: saline with Tween-80 102 % of control | dose: 400.0 mg/kg/injection, schedule: Q04DX003 (ip), vehicle: saline with Tween-80 102 % of control

CCC(C)(N)C(=O)O (centres undefined)
inactive: [1] 102 % of control | dose: 200.0 mg/kg/injection, schedule: Q01DX001 (ip), vehicle: saline 106 % of control | [2] 102 % of control

C=Cn1cc[n+](Cc2ccccc2)c1C
inactive: dose: 10.0 mg/kg/injection, schedule: Q01DX009 (ip), vehicle: saline 101 % of control and 104 % of control | dose: 10.0 mg/kg/injection, schedule: Q04DX002 (ip), vehicle: saline 108 % of control and 90 % of control | dose: 20.0 mg/kg/injection, schedule: Q01DX009 (ip), vehicle: saline 105 % of control | dose: 20.0 mg/kg/injection, schedule: Q04DX002 (ip), vehicle: saline 94 % of control and 97 % of control | dose: 40.0 mg/kg/injection, schedule: Q01DX009 (ip), vehicle: saline 100 % of control and 116 % of control | dose: 40.0 mg/kg/injection, schedule: Q04DX002 (ip), vehicle: saline 97 % of control and 102 % of control

CCOC(=O)CC(C[N+](=O)[O-])C(F)(F)F (centres undefined)
inactive: dose: 100.0 mg/kg/injection, schedule: Q01DX001 (ip), vehicle: other 103 % of control | dose: 200.0 mg/kg/injection, schedule: Q01DX001 (ip), vehicle: other 97 % of control | dose: 400.0 mg/kg/injection, schedule: Q01DX001 (ip), vehicle: other 103 % of control

O=C(O)Cc1ccc2c(c1)C(=O)C(=O)N2
inactive: [3] 95 % of control | [4] 102 % of control | [5] 89 % of control

Brc1ccc([Si](c2ccccc2)(c2ccccc2)c2ccc(Br)cc2)cc1
inactive: [6] 101 % of control | [7] 93 % of control | [8] 89 % of control

CC(C)(C)C1CCC(OC=O)CC1 (centres undefined)
inactive: [9] 92 % of control | [10] 93 % of control

O=C(O)c1cccc(Br)c1
inactive: [11] 102 % of control | [12] 98 % of control | [13] 102 % of control

O=[N+]([O-])c1cc([N+](=O)[O-])c(Br)cc1F
inactive: dose: 2.5 mg/kg/injection, schedule: Q01DX009 (ip), vehicle: Klucel (hydroxypropylcellulose) (HPC) 92 % of control | dose: 5.0 mg/kg/injection, schedule: Q01DX009 (ip), vehicle: Klucel (hydroxypropylcellulose) (HPC) 99 % of control

C/C(CC(C)C)=N\NC(=O)Nc1cccc(Cl)c1C
inactive: dose: 100.0 mg/kg/injection, schedule: Q01DX001 (ip), vehicle: Klucel (hydroxypropylcellulose) (HPC) 86 % of control | [14] 99 % of control and 103 % of control | [11] 98 % of control and 92 % of control | dose: 200.0 mg/kg/injection, schedule: Q01DX001 (ip), vehicle: Klucel (hydroxypropylcellulose) (HPC) 93 % of control | [15] 96 % of control and 99 % of control | [12] 103 % of control and 92 % of control | dose: 400.0 mg/kg/injection, schedule: Q01DX001 (ip), vehicle: Klucel (hydroxypropylcellulose) (HPC) 93 % of control | [16] 93 % of control and 95 % of control | [13] 95 % of control

O=c1ccc([N+](=O)[O-])c[nH]1
inactive: dose: 100.0 mg/kg/injection, schedule: Q01DX009 (ip), vehicle: saline 97 % of control and 93 % of control | [3] 105 % of control | dose: 200.0 mg/kg/injection, schedule: Q01DX009 (ip), vehicle: saline 101 % of control and 100 % of control | [4] 96 % of control and 103 % of control | dose: 400.0 mg/kg/injection, schedule: Q01DX009 (ip), vehicle: saline 105 % of control and 95 % of control | [5] 94 % of control and 96 % of control

CCN(CC)CCCNc1cc(C)c(C)cc1[N+](=O)[O-]
inactive: [3] 100 % of control

CC(=[N-])CC(C)=O.CC(=[N-])CC(C)=O.[Cu+2]
inactive: dose: 6.25 mg/kg/injection, schedule: Q04DX003 (ip), vehicle: saline with Tween-80 88 % of control | dose: 12.5 mg/kg/injection, schedule: Q04DX003 (ip), vehicle: saline with Tween-80 89 % of control

OCC1OC(n2cc(Cl)c3cncnc32)C(O)C1O (centres undefined)
inactive: dose: 50.0 mg/kg/injection, schedule: Q01DX005 (ip), vehicle: saline 101 % of control

CCOc1ccccc1/C=N\NC(=O)CCCC(=O)N/N=C/c1ccccc1OCC
inactive: [2] 111 % of control

Cc1nnc(NS(=O)(=O)c2ccc(N=Nc3c(N)n(C)c(=O)n(C)c3=O)cc2)s1
inactive: [17] 101 % of control | [18] 95 % of control | [19] 89 % of control

O=S(=O)(CCl)OCCCCOS(=O)(=O)CCl
inactive: dose: 31.5 mg/kg/injection, schedule: Q01DX009 (ip), vehicle: saline 108 % of control and 109 % of control | dose: 31.5 mg/kg/injection, schedule: Q01DX015 (ip), vehicle: saline 112 % of control | dose: 50.0 mg/kg/injection, schedule: Q01DX001 (ip), vehicle: saline 100 % of control | dose: 54.0 mg/kg/injection, schedule: Q01DX009 (ip), vehicle: saline 120 % of control and 124 % of control | dose: 90.0 mg/kg/injection, schedule: Q01DX009 (ip), vehicle: saline 124 % of control | dose: 90.0 mg/kg/injection, schedule: Q01DX015 (ip), vehicle: saline 124 % of control | [1] 111 % of control | dose: 100.0 mg/kg/injection, schedule: Q01DX015 (ip), vehicle: saline 108 % of control | dose: 133.0 mg/kg/injection, schedule: Q01DX001 (ip), vehicle: saline 104 % of control and 107 % of control and 121 % of control | dose: 150.0 mg/kg/injection, schedule: Q01DX009 (ip), vehicle: saline 104 % of control | dose: 200.0 mg/kg/injection, schedule: Q01DX015 (ip), vehicle: saline 97 % of control | dose: 300.0 mg/kg/injection, schedule: Q01DX001 (ip), vehicle: saline 104 % of control and 121 % of control

O=C(COc1cc(Cl)c(Cl)cc1Cl)Nc1cccc2c1C(=O)c1ccccc1C2=O
inactive: dose: 75.0 mg/kg/injection, schedule: Q04DX002 (ip), vehicle: Klucel (hydroxypropylcellulose) (HPC) 98 % of control | dose: 150.0 mg/kg/injection, schedule: Q04DX002 (ip), vehicle: Klucel (hydroxypropylcellulose) (HPC) 103 % of control | dose: 300.0 mg/kg/injection, schedule: Q04DX002 (ip), vehicle: Klucel (hydroxypropylcellulose) (HPC) 103 % of control

CC(CCC(C)C(=O)O)C(=O)O (centres undefined)
inactive: [6] 103 % of control | [7] 102 % of control | [8] 103 % of control

COc1ccc(-c2c([N+](=O)[O-])ccc(Cl)c2[N+](=O)[O-])cc1
inactive: dose: 50.0 mg/kg/injection, schedule: Q01DX001 (ip), vehicle: carboxymethylcellulose (CMC) 94 % of control | [17] 117 % of control | [18] 107 % of control | [19] 102 % of control

Cc1ccc(C)c(NC(=O)c2ccccc2N)c1
inactive: [14] 98 % of control | [9] 104 % of control | [15] 93 % of control | [10] 97 % of control | [16] 93 % of control | [20] 92 % of control

Nc1nc(N)c2cc(S(=O)(=O)c3ccc4ccccc4c3)ccc2n1
inactive: [14] 91 % of control | [9] 98 % of control | [15] 94 % of control | [10] 96 % of control | [20] 98 % of control
